Test results as given in patent US20240417404A1, “CRYSTALLINE FORMS OF N-[4-[4-(4-MORPHOLINYL)-7H-PYRROLO[2,3-d]PYRIMIDIN-6-YL]PHENYL]-4-[[3(R)-[(1-OXO-2-PROPEN-1-YL)AMINO]-1-[sequence]]METHYL]-2-PYRIDINECARBOXAMIDE AS IRREVERSIBLE INHIBITORS OF MENIN-MLL INTERACTION” (BIOMEA FUSION, INC., priority 2023, published 2024).
Entries after “also recorded” stand apart in the source; their conditions may differ. Read-outs that look alike come from different tables or passages of the source.

Experiments:
[1] = test system: streptozotocin (STZ) induced type II diabetes in Wistar Han rats; test: Glycemic control in streptozotocin-induced diabetic rats, 16-day dosing; assay type: in vivo, rat
Procedure: The present example provides the ability of Compound 10 to restore glycemic control to streptozotocin (STZ) induced type II diabetes in Wistar Han rats. Fahmy et al., 2017, World J. Pharm. Med. Res. 3(3):37-39.
Control and test compounds were stored at 4° C. and prepared weekly as needed. The vehicle for positive control pioglitazone was 0.25% carboxymethylcellulose and 1% Tween® 80 in reverse osmosis deionized water. The vehicle for Compound 10 was 10% DMSO, 10% Solutol HS 15, and 80% (10% hydroxypropyl-β-cyclodextrin in 50 mM citrate buffer at pH 3.0). The vehicle for streptozotocin pretreatment was 0.1 M sodium citrate pH 4.5.
On Day −3, twenty-four Wistar Han rats (plus eight spare Wistar Han rats) were measured for body weight and non-fasting glucose. Starting on Day −42, D12451 Research Diet was provided ad libitum throughout the study, except during designated procedures, as was water. In order to minimize the effects of stress on blood glucose and body, all animals including the spares received daily sham doses with phosphate buffered saline pH 7.2 (dose volume 5 mL/kg) via gavage beginning on Study Day −5 to Day −1. 20% Glucose in drinking water (200 g/L) was provided ad libitum for 24 hr after streptozotocin injection on Day −14 and Day −7.
On Days −14 and −7, streptozotocin was administered at 30 mg/kg/day QD intraperitoneally. Starting on Day 1, control and test compound were administered on the following schedule.
On Days −7 to −1 and on Days 1, 8, and 14 non-fasting blood glucose was measured. On Day 15, an oral glucose tolerance test was administered. The animals were weighed and the animals were placed in clean cages without food. Access to water was provided throughout the procedure. The animals were fasted for five hours and a blood glucose measurement was determined. The animals were dosed via oral gavage with 2 g/kg glucose (10 mL/kg). Blood glucose was determined via venipuncture. The second drop of blood from the animal was placed on a hand-held glucometer (Abbott Alpha Trak) at the following times relative to the glucose dose: zero (just prior to glucose dose), 15, 30, 60, 90, and 120 min. Following the final blood glucose measurement, food was returned to the cages. On Day 17, 4-hour fasting glucose was measured. Serum samples were used to measure insulin by ELISA. Analysis was performed in one to three days of each collection. On Day 17, terminal blood collection was obtained at about 8 mL per animal and measured for blood glucose.
ZDF rats were treated daily with Compound 10, vehicle, or pioglitazone for sixteen days and monitored for an additional two weeks post-treatment until Day 29. STZ rat models were induced through pre-treatment of animals on a high-fat diet with low doses of streptozotocin at Day −14 and Day −7 prior to starting treatment at Day Zero until Day 16. ZDF and STZ rats were monitored for fasting blood glucose levels, oral glucose tolerance test (OGTT), insulin and C-peptide levels, HOMA-IR (Homeostatic Model Assessment of Insulin Resistance), blood lipemic levels, and body weight according to the schematic for each model below. ZDF rats were analyzed for indicated readouts for fifteen days post-treatment for OGTT at Day 29, and serum insulin and C-peptide at Day 31.
STZ Rat Model—three treatment groups 1. Vehicle; 2. Compound 10 at 175 mg/kg; and 3. Pioglitazone at 30 mg/kg; n=10 per group. […] Rats were monitored for the following parameters through dosing—body weight, blood glucose levels, and OGTT.

[2] = Clinical study (SAD, food effect, MAD cohorts) in healthy and type 2 diabetes mellitus subjects; assay type: in vivo, human; settings: human, in vivo, oral; for AUC: read-out: Exposure: AUC; for Cmax: read-out: Exposure: Cmax
Procedure: (§1) In Experimental Phase 1 (SAD cohorts), 40 healthy adult subjects were randomized into 4 dose escalating cohorts of 10. In each cohort, subjects were randomized at 7:3 (active and placebo) in sequential order. Each cohort was composed of 2 sentinel subjects randomized at 1:1 (active and placebo), followed by 8 additional subjects randomized at 3:1 (active and placebo). Doses were 100 mg, 200 mg, 400 mg, and 600 mg.
(§2) In Experimental Phase 1 (3-period crossover, food effect study), each cohort of 12 healthy adult subjects was randomized at 1:1:1:1:1:1 in a 3-period crossover study with 6 treatment sequences.
(§3) In Experimental Phase 2 (MAD cohorts), 1 cohort of 16 healthy adult subjects was randomized at 3:1 (active and placebo), and 7 cohorts of type 2 diabetes mellitus adult subjects were randomized at 5:1 (active and placebo) to obtain safety and efficacy data to identify the potential optimal biological dose (OBD) and a recommended Phase 2 dose (RP2D). Doses were 100 mg, 200 mg, 400 mg, and 600 mg.

[3] = test system: healthy adult subjects and type 2 diabetes mellitus adult subjects; test: as above; assay type: in vivo, human
Procedure: as §1, §2, §3

VAL = test: DLBCL cell line proliferation (Cell Titer Glo, four days): VAL; assay type: cell-based; settings: THL
Procedure: (§4) DLBCL cell line TOLEDO was cultured in the presence of Compound A or clinical reversible menin inhibitors for six and fourteen hours. Menin protein expression was reduced up to 60% at 1 μM by Compound A after fourteen hours compared to clinical reversible inhibitors at <20% at similar concentrations. Menin protein expression was measured by the Wes system and analyzed using the Compass software (automated western blotting, Protein Simple). Signal was normalized to GAPDH and referenced to DMSO control (FIG. 36E). DLBCL and MM cell lines were cultured with Compound A, bortezomib (PS-341), or DMSO for four days and cell proliferation was measured by Cell Titer Glo. Ex vivo studies of DLBCL and MM models were conducted by measurement of cell proliferation (Cell Titer Glo) after six days of treatment with Compound A, PS-341, or DMSO control.

OCI-LY7 = test: DLBCL cell line proliferation (Cell Titer Glo, four days): OCI-LY7; assay type: cell-based; settings: OCI-LY7, GCB
Procedure: as §4

MM1.R = test: MM cell line proliferation (Cell Titer Glo, four days): MM1.R; assay type: cell-based; settings: t(14; 16), KRAS G12A
Procedure: as §4

SMILES: C=CC(=O)N[C@@H]1CCCN(Cc2ccnc(C(=O)Nc3ccc(-c4cc5c(N6CCOCC6)ncnc5[nH]4)cc3)c2)C1 [Compound A, N-[4-[4-(4-morpholinyl)-7H-pyrrolo[2,3-d]pyrimidin-6-yl]phenyl]-4-[[3(R)-[(1-oxo-2-propen-1-yl)amino]-1-piperidinyl]methyl]-2-pyridinecarboxamide]
- OGTT AUC reduction ([1]; STZ rats, Day 15, p<0.05): 41%
- insulin in the non-fasting and fasting states ([1]; STZ-induced rats (FIG. 20A, 20B)): maintenance or reduction of insulin
- non-fasting glucose ([1]; STZ-induced rats, 175 mg/kg/day PO QD, compared to vehicle and control, listed as Compound 10, 175 mg/kg/day): reduction of glucose levels; also recorded: sharp reduction in non-fasting glucose
- insulin in the non-fasting state ([1]; STZ-induced rats, Days 1 and 8 (FIG. 19)): significant reduction of insulin
- oral glucose tolerance test, glucose control ([1]; STZ-induced rats, after fifteen days of treatment): significant glucose control
- AUC ([2]; Cohort 2 (taken with food)): 84.3 ng·h/mL
- Cmax ([2]; Cohort 2 (taken with food)): 34.8 ng/mL
- AUC ([2]; Cohort 3 (taken without food)): 224 ng·h/mL
- Cmax ([2]; Cohort 3 (taken without food)): 94.2 ng/mL
- dose discontinuations ([3]; 4 weeks of treatment): no dose discontinuations
- episodes of symptomatic hypoglycemia ([3]; 4 weeks of treatment): No episodes of symptomatic hypoglycemia occurred in any patients
- safety profile ([3]; 4 weeks of treatment): well-tolerated safety profile
- severe or serious TEAEs ([3]; 4 weeks of treatment): No severe or serious TEAEs were observed
- Mean Change in HbA1c % at Week 4 ([3]; Cohort 2): (−0.25) %
- Median Change in HbA1c % at Week 4 ([3]; Cohort 2): −0.3%
- Mean Change in HbA1c % at Week 4 ([3]; Cohort 3): (−0.81) %
- Median Change in HbA1c % at Week 4 ([3]; Cohort 3): −1.0%
- patients who achieved a reduction in HbA1c ([3]; any reduction): 89%
- median change of Hb1Ac ([3]; cohort when taken with food): -0.3%
- median change of Hb1Ac ([3]; cohort when taken without food): -1%
- patients who achieved ≥0.5% reduction in HbA1c ([3]; human, in vivo): 78%
- patients who achieved ≥1% reduction in HbA1c ([3]; human, in vivo): 56%
- Average % Max Inhibition by Compound A (VAL; MYC/BCL2/BCL6): 97.1%
- IC50 (VAL; MYC/BCL2/BCL6, read-out: Average IC50 ± Standard Deviation): 271 ± 70 nM
- IC50 (OCI-LY7; Homo sapiens, read-out: Average IC50 ± Standard Deviation): 650 ± 260 nM
- Average % Max Inhibition by Compound A (OCI-LY7): 99.6%
- Average % Max Inhibition by Compound A (MM1.R): 99.6%
